Experimental data published in US20050171057A1, “Pantoprazole cyclodextrin inclusion complexes” (ALTANA PHARMA AG, priority 2002, published 2005).
Values after ≈ are worked out from the molar mass of the structure shown. Where two headings read alike, the source gives them in different places.

Tests used:
[1] = Complexation (phase solubility) study of pantoprazole with βCD and HPβCD in phosphate buffer pH 7; type: physicochemical; settings: in the presence of βCD (up to 1.8% p/v), phosphate buffer pH 7, maximum
Experimental: Methods: Various solutions of the different cyclodextrins taken into consideration were prepared in phosphate buffer solution pH 7 at known concentrations and used to create saturated solutions of pantoprazole. After equilibration, these saturated solutions were filtered through MF™ membrane filters (pore size 0.45 μm), appropriately diluted with phosphate buffer solution and subjected to uv/vis spectrophotometric analysis. The cyclodextrin solutions prepared with phosphate buffer ranged from concentrations of 0% p/v up to 1.8% p/v for βCD, 20% p/v for HPβCD.

[2] = Phase-solubility studies of PNTH with β-CD, HPβ-CD and SBβ-CD in phosphate buffer pH 7; type: physicochemical; settings: for solubility: thermodynamic from solid; for increase of apparent solubility versus phosphate buffer alone: phosphate buffer pH 7
Experimental: The Solubility of PNTH in Phosphate Buffer Solution at pH 7 was Determined Using a Previously Constructed Asorbance vs. Concentration Calibration Curve.
A known amount of PNTH was suspended in cyclodextrin solutions of different concentrations ranging from; 0 to 1.8% (p/v) for β-CD, 0 to 20% (p/v) for H-Pβ-CD and 0 to 15% (p/v) for SB-β-CD. The resulting suspension was filtered using a PTFE 0.45μ filter, adequately diluted and then subjected to UV spectrophotometric analysis. The concentration of PNTH in the corresponding sample was then calculated referring to the relevant PNTH calibration curve.
UV-VIS spectra were recorded on a Jasco V570 Spectrophoto meter.

- increase of solubility with respect to solubility in phosphate buffer [1]: four
- solubility ([2]; aqueous buffer, phosphate buffer solution pH 7, no cyclodextrin, read-out: solubility in phosphate buffer alone): 0.56 mM (≈ 215 µg/mL)
- solubility ([2]; aqueous with cosolvent or surfactant or cyclodextrin, solutions of HPβ-CD (0 to 20% p/v) in phosphate buffer pH 7, maximum reached, read-out: apparent solubility with HPβ-CD): 17.8 mM (≈ 6820 µg/mL)
- solubility ([2]; aqueous with cosolvent or surfactant or cyclodextrin, solutions of SBβ-CD (0 to 15% p/v) in phosphate buffer pH 7, maximum reached, read-out: apparent solubility with SBβ-CD): 9.3 mM (≈ 3570 µg/mL)
- solubility ([2]; aqueous with cosolvent or surfactant or cyclodextrin, solutions of β-CD (0 to 1.8% p/v) in phosphate buffer pH 7, maximum reached, read-out: apparent solubility with β-CD): 2.25 mM (≈ 863 µg/mL)
- increase of apparent solubility versus phosphate buffer alone ([2]; solutions of HPβ-CD (0 to 20% p/v)): 36 times
- increase of apparent solubility versus phosphate buffer alone ([2]; solutions of SBβ-CD (0 to 15% p/v)): twenty
- increase of apparent solubility versus phosphate buffer alone ([2]; solutions of β-CD (0 to 1.8% p/v)): four
SMILES: COc1ccnc(C[S+]([O-])c2nc3ccc(OC(F)F)cc3[nH]2)c1OC (centres unmarked) [pantoprazole, 5-difluoromethoxy-2-[(3,4-dimethoxy-2-pyridinyl)methylsulfinyl]-1H-benzimidazole]
